Data published in publication PMC3160329, “Functional Dissection of the Proton Pumping Modules of Mitochondrial Complex I” (PLoS Biology, 2011).

Molecular target: T1, subcomplex nb8mΔ (Yarrowia lipolytica, UniProt Q9B6E8+Q9UUT7+Q9UUU1+Q9UUU2)
T1 construct: gene nucm; complex I subcomplex lacking 14 subunits of the PD module (incl. ND4, ND5, NB8M); about 680 kDa; C-terminal His tag on NUGM; purified, asolectin proteoliposomes; with NADH-ubiquinone oxidoreductase 75 kDa subunit; NADH-ubiquinone oxidoreductase 30 kDa subunit; NADH-ubiquinone oxidoreductase 24 kDa subunit; NADH-ubiquinone oxidoreductase 23 kDa subunit; NADH-ubiquinone oxidoreductase chain 2; NADH-ubiquinone oxidoreductase chain 3; NADH-ubiquinone oxidoreductase chain 6; NADH-ubiquinone oxidoreductase chain 4L
Test: NADH:DBQ oxidoreductase activity, NADH oxidation
Format: biochemical
Details: 100 µM DBQ, 100 µM NADH, pH 7.2, 30 °C, proteoliposomes

Row | Structure (SMILES) | NADH:DBQ oxidoreductase activity, NADH oxidation (electron acceptor) | NADH:DBQ oxidoreductase activity, NADH oxidation (electron donor)
1 | CCCCCCCCCCC1=C(C)C(=O)C(OC)=C(OC)C1=O [DBQ, decylubiquinone] | addition of NADH and the ubiquinone analogue DBQ to subcomplex nb8mΔ proteoliposomes | 
2 | NC(=O)C1=CN([C@@H]2O[C@H](COP(=O)(O)OP(=O)(O)OC[C@H]3O[C@@H](n4cnc5c(N)ncnc54)[C@H](O)[C@@H]3O)[C@@H](O)[C@H]2O)C=CC1 [NADH] |  | addition of NADH and the ubiquinone analogue DBQ to subcomplex nb8mΔ proteoliposomes
